Results from US11584743B2, “Indole derivatives as estrogen receptor degraders” (Arvinas Operations, Inc., priority 2016, dated 2023).

Test: Single dose subcutaneous pharmacokinetics in CD-1 mice
Format: in vivo
Settings: mouse, plasma, sc, 10 mg/kg single dose
Method: Single Dose Subcutaneous Pharmacokinetics in CD-1 Mice The subcutaneous bioavailability was determined in the following study: three CD-1 mice were dosed by subcutaneous injection (10 mg/kg) and plasma was collected at the following hourly time points (0.25, 0.5, 1, 2, 4, 8, and 24 h). Plasma compound concentations were determined by HPLC.

bioavailability (read-out: F % (subcutaneous bioavailability)): 100%
AUC(0-inf): 8280 ng·h/mL
Cmax: 687 ng/mL
Tmax: 4 h
half-life: 12 h
SMILES: Cc1ncsc1-c1ccc([C@H](C)NC(=O)[C@@H]2C[C@@H](O)CN2C(=O)[C@@H](NC(=O)COCCOCCOCCOc2ccc(Cn3c(-c4ccc(O)cc4)c(C)c4cc(O)ccc43)cc2)C(C)(C)C)cc1 [Example #5, (2S,4R)-4-hydroxy-1-[(2S)-2-[1-(4-[[5-hydroxy-2-(4-hydroxyphenyl)-3-methyl-1H-indol-1-yl]methyl]phenyl)-1,4,7,10-tetraoxadodecan-12-amido]-3,3-dimethylbutanoyl]-N-[(1S)-1-[4-(4-methyl-1,3-thiazol-5-yl)phenyl]ethyl]pyrrolidine-2-carboxamide]
